Source: patent US20240408169A1 (priority 2023, published 2024)
Like-named read-outs stand apart in the source and are kept apart here. *1 amine or outer side, *2 acyl side, *3 side chain or, on linkers, in order; H or OH if unused. Where a SMILES comes first, the peptide text is derived from it. Bridges are numbered along the chain shown (N, C = ends). [ ]: non-standard residue; d: D form. The star is where a group is joined. X48 = CN(C)C[C@H]1CN(c2ccc(-c3ccc(Cl)cc3C[C@@H](C(=O)[*:2])N(C)[*:1])cc2)CCO1; NMePhe(2-(4-MorPh),5-Cl) = CN[C@@H](Cc1cc(Cl)ccc1-c1ccc(N2CCOCC2)cc1)C(=O)O; X63 = CC(C)N1CCN(c2ccc(-c3ccc(Cl)cc3C[C@@H](C(=O)[*:2])N(C)[*:1])cc2F)CC1; X70 = CN1CCC[C@@H](c2ccc(-c3ccc(Cl)cc3C[C@@H](C(=O)[*:2])N(C)[*:1])cc2)C1; X1 = C[C@H]1CN(c2ccc(-c3ccc(Cl)cc3C[C@@H](C(=O)[*:2])N(C)[*:1])cc2)CCN1C; X62 = CN1CCC[C@H](c2ccc(-c3ccc(Cl)cc3C[C@@H](C(=O)[*:2])N(C)[*:1])cc2)C1; X95 = CN1CCCC[C@H]1c1ccc(-c2ccc(Cl)cc2C[C@@H](C(=O)[*:2])N(C)[*:1])cc1; X32 = CN([C@@H](Cc1cc(Cl)ccc1-c1ccc(N2CCOCC2=O)cc1)C(=O)[*:2])[*:1]; X56 = CN1CCc2cc(-c3ccc(Cl)cc3C[C@@H](C(=O)[*:2])N(C)[*:1])ccc2C1; NMehhhLys(Me) = CN([C@@H](CCCCCCCN(C)[*:3])C(=O)[*:2])[*:1]; cBuCO(3,3-F2-1-CF3) = O=C(C1(C(F)(F)F)CC(F)(F)C1)*; Pro(trans-4-F) = O=C(O)[C@@H]1C[C@@H](F)CN1; Nva(5-OH) = N[C@@H](CCCO)C(=O)O; Gly(cPr) = N[C@H](C(=O)O)C1CC1

Assays:
CyclinB1/CDK1 = molecular target: T1, CyclinB1/CDK1 (Homo sapiens, UniProt P14635); experiment: Fluorescence Polarization (FP) competitive binding assay, Cyclin B1/Cdk1; conditions: 10 nM Cyclin B1/Cdk1, 2 nM FAM probe; average of 2-3 independent experiments; read-out: Cyclin B FP IC50;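 also: fluorescence polarization read after equilibration at room temperature, with IC50 taken from serially diluted dose-response curves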
T1 construct: purchased Eurofins, discovery 14-450

CyclinA2/CDK2 = molecular target: T2, CyclinA2/CDK2 (Homo sapiens, UniProt P20248); experiment: Fluorescence Polarization (FP) competitive binding assay, Cyclin A2/Cdk2; conditions: 8 nM Cyclin A2/Cdk2, 2 nM FAM probe; average of 2-3 independent experiments; read-out: Cyclin A FP IC50;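 also: plates equilibrated two hours at room temperature before polarization reading, IC50 fitted from eight-concentration compound titration curves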
T2 construct: purchased CRELUX Protein Services

NCI-H1048 cells = experiment: MTT proliferation assay, NCI-H1048; type: cell-based; conditions: 5 days compound exposure, 1:3 serial dilution starting at 10 μM;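 also: Dose-response in 96-well plates over 8 or 10 concentration points, with exposure spanning 3-4 cell doublings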
OVCAR3 cells = experiment: MTT proliferation assay, OVCAR3; type: cell-based; conditions: 5 days compound exposure, 1:3 serial dilution starting at 10 μM;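 also: compound given as an 8- or 10-point series, one day after plating, with exposure covering roughly 3-4 cell doublings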
CyclinE1/CDK2 = molecular target: T3, CyclinE1/CDK2 (Homo sapiens, UniProt P24864); experiment: Fluorescence Polarization (FP) competitive binding assay, Cyclin E1/Cdk2; conditions: 10 nM Cyclin E1/Cdk2, 2 nM FAM probe; average of 2-3 independent experiments; read-out: Cyclin E FP IC50;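 also: readings taken after two-hour equilibration at room temperature in HEPES buffer with NaCl, DTT, NP-40 and BSA, IC50 fitted from eight-concentration serial dilution series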
T3 construct: purchased Eurofins, discovery 14-475

WI-38 cells = experiment: MTT proliferation assay, WI-38; type: cell-based; conditions: 3 days compound exposure, 1:3 serial dilution starting at 10 μM;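 also: Eight- or ten-point dilution series, with exposure length chosen to span about three to four cell doublings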

| SMILES | ring closure, yield of all isomers (from CC(C)C[C@H](N)C(=O)N(C)[C@@H](Cc1cc(Cl)cnc1OC1CC1)C(=O)N(C)CCCC/C=C\C[C@@H](C(=O)O)N(C)C(=O)OCC1c2ccccc2-c2ccccc21, amide bond, PyBOP/HOAt/DIPEA, DCM, 2.57 mM, 25.0 °C) [%] | ring closure, yield of all isomers (from C=CCCCCN(C)C(=O)[C@H](Cc1cc(F)ccc1Br)N(C)C(=O)[C@H](CC(C)C)NC(=O)[C@H](CC=C)N(C)C(=O)[C@@H](NC(=O)OC(C)(C)C)C1CC1, rcm bond, Hoveyda-Grubbs II, DCE, 6.3 mM, 70.0 °C) [%] | IC50 (CyclinB1/CDK1) [nM] | IC50 (CyclinA2/CDK2) [nM] | GI50 (NCI-H1048 cells) [nM] | GI50 (OVCAR3 cells) [nM] | IC50 (CyclinE1/CDK2) [nM] | GI50 (WI-38 cells) [nM] |
| --- | --- | --- | --- | --- | --- | --- | --- | --- |
| CC(C)C[C@@H]1NC(=O)[C@@H](N(C)C(=O)OCC2c3ccccc3-c3ccccc32)C/C=C\CCCCN(C)C(=O)[C@H](Cc2cc(Cl)cnc2OC2CC2)N(C)C1=O | 30 | – | – | – | – | – | – | – |
| CC(C)C[C@@H]1NC(=O)[C@@H](N(C)C(=O)[C@@H](NC(=O)OC(C)(C)C)C2CC2)CC=CCCCCN(C)C(=O)[C@H](Cc2cc(F)ccc2Br)N(C)C1=O | – | 67 | – | – | – | – | – | – |
| CC(C)C[C@@H]1NC(=O)[C@@H](N(C)C(=O)[C@@H](NC(=O)[C@@H]2C[C@@H](F)CN2C(=O)C2(C(F)(F)F)CC(F)(F)C2)C2CC2)CCCCCCCN(C)C(=O)[C@H](Cc2cc(Cl)ccc2-c2ccc3c(c2)CCN(C)C3)N(C)C1=O [Example 407] ({cBuCO(3,3-F2-1-CF3)}-[Pro(trans-4-F)][Gly(cPr)][NMehhhLys(Me)]L[X56]; lactam 3-C) | – | – | 20 | 20 | 10 | 20 | 1460 | 3010 |
| CC(C)C[C@@H]1NC(=O)[C@@H](N(C)C(=O)[C@@H](NC(=O)[C@@H]2C[C@@H](F)CN2C(=O)C2(C(F)(F)F)CC(F)(F)C2)C2CC2)CCCCCCCN(C)C(=O)[C@H](Cc2cc(Cl)ccc2-c2ccc(N3CCOCC3=O)cc2)N(C)C1=O [Example 408] ({cBuCO(3,3-F2-1-CF3)}-[Pro(trans-4-F)][Gly(cPr)][NMehhhLys(Me)]L[X32]; lactam 3-C) | – | – | 20 | 20 | 10 | 10 | 510 | 5530 |
| CC(C)C[C@@H]1NC(=O)[C@@H](N(C)C(=O)[C@@H](NC(=O)[C@@H]2C[C@@H](F)CN2C(=O)C2(C(F)(F)F)CC(F)(F)C2)C2CC2)CCCCCCCN(C)C(=O)[C@H](Cc2cc(Cl)ccc2-c2ccc(N3CCN(C)[C@@H](C)C3)cc2)N(C)C1=O [Example 409] ({cBuCO(3,3-F2-1-CF3)}-[Pro(trans-4-F)][Gly(cPr)][NMehhhLys(Me)]L[X1]; lactam 3-C) | – | – | 20 | 20 | 10 | 10 | 670 | 2460 |
| CC(C)C[C@@H]1NC(=O)[C@@H](N(C)C(=O)[C@@H](NC(=O)[C@@H]2C[C@@H](F)CN2C(=O)C2(C(F)(F)F)CC(F)(F)C2)C2CC2)CCCCCCCN(C)C(=O)[C@H](Cc2cc(Cl)ccc2-c2ccc(N3CCO[C@@H](CN(C)C)C3)cc2)N(C)C1=O [Example 410] ({cBuCO(3,3-F2-1-CF3)}-[Pro(trans-4-F)][Gly(cPr)][NMehhhLys(Me)]L[X48]; lactam 3-C) | – | – | 20 | 20 | 10 | 10 | 650 | 2000 |
| CC(C)C[C@@H]1NC(=O)[C@@H](N(C)C(=O)[C@@H](NC(=O)[C@@H]2C[C@@H](F)CN2C(=O)C2(C(F)(F)F)CC(F)(F)C2)C2CC2)CCCCCCCN(C)C(=O)[C@H](Cc2cc(Cl)ccc2-c2ccc([C@@H]3CCCN(C)C3)cc2)N(C)C1=O [Example 411] ({cBuCO(3,3-F2-1-CF3)}-[Pro(trans-4-F)][Gly(cPr)][NMehhhLys(Me)]L[X70]; lactam 3-C) | – | – | 20 | 20 | 10 | 10 | 760 | 1610 |
| CC(C)C[C@@H]1NC(=O)[C@@H](N(C)C(=O)[C@@H](NC(=O)[C@@H]2C[C@@H](F)CN2C(=O)C2(C(F)(F)F)CC(F)(F)C2)C2CC2)CCCCCCCN(C)C(=O)[C@H](Cc2cc(Cl)ccc2-c2ccc([C@H]3CCCN(C)C3)cc2)N(C)C1=O [Example 412] ({cBuCO(3,3-F2-1-CF3)}-[Pro(trans-4-F)][Gly(cPr)][NMehhhLys(Me)]L[X62]; lactam 3-C) | – | – | 20 | 20 | 10 | 10 | 1390 | 1060 |
| CC(C)C[C@@H]1NC(=O)[C@@H](N(C)C(=O)[C@@H](NC(=O)[C@@H]2C[C@@H](F)CN2C(=O)C2(C(F)(F)F)CC(F)(F)C2)C2CC2)CCCCCCCN(C)C(=O)[C@H](Cc2cc(Cl)ccc2-c2ccc(N3CCN(C(C)C)CC3)c(F)c2)N(C)C1=O [Example 413] ({cBuCO(3,3-F2-1-CF3)}-[Pro(trans-4-F)][Gly(cPr)][NMehhhLys(Me)]L[X63]; lactam 3-C) | – | – | 20 | 20 | 10 | 10 | 1310 | 1600 |
| COC(=O)CC[C@H](NC(=O)[C@@H]1C[C@@H](F)CN1C(=O)C1(C(F)(F)F)CC(F)(F)C1)C(=O)N(C)[C@H]1CCCCCCCN(C)C(=O)[C@H](Cc2cc(Cl)ccc2-c2ccc(N3CCOCC3)cc2)N(C)C(=O)[C@H](CC(C)C)NC1=O [Example 415] ({cBuCO(3,3-F2-1-CF3)}-[Pro(trans-4-F)]E(OMe)[NMehhhLys(Me)]L[NMePhe(2-(4-MorPh),5-Cl)]; lactam 3-C) | – | – | 20 | 20 | 10 | 10 | 300 | 14100 |
| CC(C)C[C@@H]1NC(=O)[C@@H](N(C)C(=O)[C@@H](NC(=O)[C@@H]2C[C@@H](F)CN2C(=O)C2(C(F)(F)F)CC(F)(F)C2)C2CC2)CCCCCCCN(C)C(=O)[C@H](Cc2cc(Cl)ccc2-c2ccc([C@@H]3CCCCN3C)cc2)N(C)C1=O [Example 417] ({cBuCO(3,3-F2-1-CF3)}-[Pro(trans-4-F)][Gly(cPr)][NMehhhLys(Me)]L[X95]; lactam 3-C) | – | – | 20 | 30 | 10 | 10 | 2650 | 1160 |
| CC(C)C[C@@H]1NC(=O)[C@@H](N(C)C(=O)[C@H](CCC(=O)N(C)C)NC(=O)[C@@H]2C[C@@H](F)CN2C(=O)C2(C(F)(F)F)CC(F)(F)C2)CCCCCCCN(C)C(=O)[C@H](Cc2cc(Cl)ccc2-c2ccc(N3CCOCC3)cc2)N(C)C1=O [Example 419, (S)—N1-((3S,6S,9S)-3-((4-chloro-4′-morpholino-[1,1′-biphenyl]-2-yl)methyl)-6-isobutyl-1,4-dimethyl-2,5,8-trioxo-1,4,7-triazacyclohexadecan-9-yl)-2-((2S,4R)-1-(3,3-difluoro-1-(trifluoromethyl)cyclobutane-1-carbonyl)-4-fluoropyrrolidine-2-carboxamido)-N1,N5,N5-trimethylpentanediamide] ({cBuCO(3,3-F2-1-CF3)}-[Pro(trans-4-F)]E(NMe2)[NMehhhLys(Me)]L[NMePhe(2-(4-MorPh),5-Cl)]; lactam 3-C) | – | – | 20 | 20 | 20 | 20 | 540 | 1990 |
| CC(C)C[C@@H]1NC(=O)[C@@H](N(C)C(=O)[C@H](CCC(=O)N2CCN(C)CC2)NC(=O)[C@@H]2C[C@@H](F)CN2C(=O)C2(C(F)(F)F)CC(F)(F)C2)CCCCCCCN(C)C(=O)[C@H](Cc2cc(Cl)ccc2-c2ccc(N3CCOCC3)cc2)N(C)C1=O [Example 420] | – | – | 20 | 20 | 10 | 20 | 190 | 3510 |
| CC(C)C[C@@H]1NC(=O)[C@@H](N(C)C(=O)[C@H](CCCO)NC(=O)[C@@H]2C[C@@H](F)CN2C(=O)C2(C(F)(F)F)CC(F)(F)C2)CCCCCCCN(C)C(=O)[C@H](Cc2cc(Cl)ccc2-c2ccc(N3CCOCC3)cc2)N(C)C1=O [Example 421] ({cBuCO(3,3-F2-1-CF3)}-[Pro(trans-4-F)][Nva(5-OH)][NMehhhLys(Me)]L[NMePhe(2-(4-MorPh),5-Cl)]; lactam 3-C) | – | – | 20 | 20 | 10 | 10 | 510 | 19100 |
| [2H]C([2H])([2H])N(C(=O)[C@@H](NC(=O)[C@@H]1C[C@@H](F)CN1C(=O)C1(C(F)(F)F)CC(F)(F)C1)C1CC1)[C@H]1CCCCCCCN(C)C(=O)[C@H](Cc2cc(Cl)ccc2-c2ccc(N3CCN(C)CC3)cc2)N(C)C(=O)[C@H](CC(C)C)NC1=O [Example 422] | – | – | 20 | 20 | 10 | 10 | 420 | 2360 |
